Measured values taken from US11204492B2, “Naphtyl based high index hydrophobic liquids and transmission recovery agents for liquid lens formulations” (CORNING INCORPORATED, priority 2018, dated 2021).
Values after ≈ are worked out from the molar mass of the structure shown.

How the values were obtained:
Viscosity at 20° C. = format: physicochemical; conditions: neat compound
Method: (§1) The following examples represent a variety of liquid lenses prepared according to Varioptic A39N0 design. The Varioptic A39N0 lens design includes a mechanical aperture of about 3.9 mm, a non-conductive fluid layer thickness of about 0.6 mm, and a conductive fluid layer thickness of about 1.8 mm. The properties measured for these electrowetting optical devices were performed at 20° C.
(§2) Example of the naphthalene based compounds disclosed herein have a listing of some of their physical properties listed below.

[1] = Refractive index at 589.3 nm; format: physicochemical; conditions: neat compound
Method: as §1, §2

[2] = Density of naphthalene based compounds and liquid lens liquids; format: physicochemical; parameters: Density at 20° C.: unit not given here; conditions: for Density at 20° C.: neat compound
[3] = Solubility in ethylene glycol; conditions: organic solvent or mixture
Solubility in water = conditions: 20 °C

Density ([2]; comparative aliphatic oil, temperature not given) [g/mL]	Structure (SMILES)	Viscosity at 20° C. (Viscosity at 20° C.) [cSt]	Index at 589.3 nm/20° C. [1]	Density at 20° C. [2]	solubility ([3]; 20 °C) [µg/mL]	solubility ([3]; 85 °C) [µg/mL]	solubility (Solubility in water) [µg/mL]	Density ([2]; 25° C.)
–	CCCC[Si](C)(C)c1ccc2ccccc2c1 [IX, 2-dimethylbutylsilane naphthalene]	14.9	1.57	0.97	1100 (≈ 4.54 mM)	2100 (≈ 8.66 mM)	–	–
–	[CH3][Ge]([CH3])([CH3])[c]1ccc2ccccc2c1 [VI, 2-trimethylgermane naphthalene]	6.1	1.59	1.19	3400	14800	6	–
–	C[CH2][Ge]([CH2]C)([CH2]C)[c]1ccc2ccccc2c1 [VII, 2-triethylgermane naphthalene]	10.6	1.58	1.14	1900	4200	–	–
–	C[Si](C)(C)c1ccc2ccccc2c1 [VIII, 2-trimethylsilane naphthalene]	8.1	1.58	1.01	–	–	–	–
–	c1ccc(Sc2ccc3ccccc3c2)cc1 [X, 2-phenylsulfur naphthalene]	33.8	1.69	1.16	–	–	–	–
–	CCCCCCCC[Si](C)(C)c1ccc2ccccc2c1 [XI, 2-dimethyloctylsilane naphthalene]	25.9	1.54	0.95	440 (≈ 1.47 mM)	680 (≈ 2.28 mM)	–	–
–	Fc1cccc2ccccc12 [XII, 1-fluoronapthalene]	2.1	1.59	1.13	–	–	–	–
–	CCc1ccc2ccccc2c1 [XIII, 2-ethylnaphthalene]	3.9	1.61	1.01	–	–	–	about 1.01 g/cm^3
–	CCCc1ccc2ccccc2c1 [XIV, 2-propylnaphthalene]	–	1.58	0.98	–	–	–	–
0.75	CCCCCCCCCCCC [dodecane, reference compound]	–	–	–	–	–	–	–
